The source of these data is patent publication US12492370B2, “Method for producing protein using a Talaromyces cellulolyticus strain having reduced activity of PEP4” (AJINOMOTO CO., INC., priority 2020, dated 2025).

The subject of assay [1] is protease activity of the culture supernatant of the Δpep4 strain. Briefly: Protease activity of Δpep4 strain culture supernatant with pepstatin A added. The assay is classed as biochemical, Talaromyces cellulolyticus. The method, then:
(§1) The protein concentration of the culture supernatant of each strain was measured using Protein Assay CBB (Nacalai Tesque). To confirm protease activity against casein, protease activity was measured using Amplite™ Universal Fluorimetric Protease Activity Assay Kit *Green (AAT Bioquest, Inc.). At the same time, protease activity was also measured under conditions in which an aspartate protease inhibitor pepstatin A was added.
(§2) A 50-μL aliquot of a 2× assay buffer included in the kit containing 0.5 μL of a protease substrate included in the kit (green fluorescent casein substrate) was dispensed into a 96-well plate (Greiner, product number: 655090), and 50 μL of the culture supernatants of the control strain and the Δpep4 strain were added to respective wells. Under conditions with pepstatin A addition, pepstatin A (Sigma-Aldrich, product number: P2032) was added at a final concentration of 10 μM. Protease activity was measured by measuring Relative Fluorescence Units (RFU, excitation/emission=490/525 nm) every 2 minutes at 37° C. using a microplate reader system SpectraMax® M2 (Molecular Devices). The obtained RFU was divided by the total amount of protein used in the measurement and the reaction time, to thereby calculate the protease specific activity per total amount of protein in the culture supernatant. In the table, the term “relative activity” represents the ratio of the protease specific activity of each sample to the protease specific activity of the control strain in the absence of pepstatin A. In the absence of pepstatin A, the protease specific activity of the culture supernatant of the Δpep4 strain was reduced to approximately 36% of that of the control strain.

The subject of assay [2] is protease activity of the culture supernatant of the control strain. As to the kind of experiment: Protease activity of control strain culture supernatant with pepstatin A added. It counts as biochemical, Talaromyces cellulolyticus. The procedure: as §1, §2
Where [3] appears, read: Pepstatin A 10 μM, ratio to control strain in the absence of pepstatin A.

Non-standard residues stand in square brackets, D forms with d. Residues, ends and D or L forms follow the SMILES beside them. *: point of attachment. Sta = CC(C)C[C@H](N)[C@@H](O)CC(=O)O; Isovaleryl = CC(C)CC(=O)*

Turning to `CC(C)CC(=O)N[C@H](C(=O)N[C@H](C(=O)N[C@@H](CC(C)C)[C@@H](O)CC(=O)N[C@@H](C)C(=O)N[C@@H](CC(C)C)[C@@H](O)CC(=O)O)C(C)C)C(C)C` [Pepstatin A, pepstatin A] (Isovaleryl-VV[Sta]A[Sta]-OH), the Protease specific activity in assay [1] (Pepstatin A 10 μM, 37° C.) was determined as 0.016 RFU/ug/min; in assay [2] (Pepstatin A 10 μM, 37° C.) it was 0.006 RFU/ug/min. The figures for the Relative activity in assay [1] (setting [3]) and in assay [2] (setting [3]) were 34% and 12%, respectively. In addition, the “difference in protease specific activity between presence or absence of pepstatin A” value in assay [1] (pepstatin A 10 μM) was “almost no difference”. The “protease specific activity inhibited by pepstatin A” value in assay [2] (pepstatin A 10 μM) is “about 88%”.
